Reference: patent publication US20050049210A1, “Methods for the controlled delivery of pharmacologically active compounds” (IDEXX Laboratories, Inc., priority 2003, published 2005)

Experiments:
[1] = Solubility of fatty acid salt in water immiscible solvent; type: physicochemical; details: amine group neutralized with linoleic acid, in isopropyl myristate
From the text: Oxytetracycline has one tertiary amine group, and the hydrochloride salt of oxytetracycline is readily soluble in water. Adding one mole of fatty acid to one mole of oxytetracycline creates a salt that is more soluble than unmodified oxytetracycline in isopropyl myristate.
When the two amine groups of tilmicosin are neutralized with any of several fatty acids (such as, for example, decanoic C10, lauric C12, myristic C14, palmitic C16, stearic C18, oleic C18, elaidic C18, linoleic C18, and erucic C22, sebacic, dodecanedioic), the resulting salt is soluble in pharmaceutically-acceptable water immiscible solvents. When a formulation of the salt (tilmicosin-linoleic acid) is sealed in a dialysis cassette and place in saline, the tilmicosin salt remains a cohesive mass, and tilmicosin is slowly released from the bag. The rate of release is a function of the chain length of the fatty acid, the solvent, and the tilmicosin-fatty acid salt concentration.
Roxithromycin is effective against a broad range of bacteria, and is used for the treatment of respiratory diseases in cattle. The amine group of roxithromycin can be neutralized with linoleic acid in isopropyl myristate, and a clear solution is obtained at 200 mg/ml.
Terbinafine is a specific inhibitor of squaline epoxidase, a key enzyme in fungal ergosterol biosynthesis. […]

[2] = Solubility of salt in water; type: physicochemical; details: linoleic acid salt
Description: Terbinafine is a specific inhibitor of squaline epoxidase, a key enzyme in fungal ergosterol biosynthesis. The amine group of terbinafine was neutralized with linoleic acid in ispropyl myristate, resulting in a clear solution at 150 mg/ml.

dogs = details: tilmicosin in conventional form; cited from earlier work

Molecule	concentration at which a clear solution is obtained [1]	solubility of the resulting salt in water [2]	dose normally lethal in dogs (dogs)
CC[C@H]1OC(=O)[C@H](C)[C@@H](OC2CC(C)(OC)C(O)C(C)O2)[C@H](C)[C@@H](OC2OC(C)CC(N(C)C)C2O)[C@](C)(O)C[C@@H](C)/C(=N\OCOCCOC)[C@H](C)[C@@H](O)[C@]1(C)O (stereo partly shown) [roxithromycin, Roxithromycin]	200000 µg/mL		
CN(C/C=C/C#CC(C)(C)C)Cc1cccc2ccccc12 [terbinafine, Terbinafine]	150000 µg/mL	highly insoluble	
Tilmicosin			50 mg/kg
